Measurements published in ChEMBL document CHEMBL1201862, “PubChem BioAssay data set” (2004).
Activity calls are given as the source filed them.

How the values were obtained:
[1] = target: Dual specificity tyrosine-phosphorylation-regulated kinase 1A (Rattus norvegicus, UniProt Q63470); type: biochemical, Homo sapiens
[2] = target: T1, RNA-binding protein pos-1 (Caenorhabditis elegans, UniProt G5EF15); test: disruptors of C. elegans POS-1 RNA interaction – biochemical, fluorescence polarization, dose response (AID 1964);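 note: purified POS-1 fused to maltose binding protein made in E. coli; potency of compounds blocking POS-1 binding to fluorescent RNA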
T1 sequence (G5EF15 whole entry): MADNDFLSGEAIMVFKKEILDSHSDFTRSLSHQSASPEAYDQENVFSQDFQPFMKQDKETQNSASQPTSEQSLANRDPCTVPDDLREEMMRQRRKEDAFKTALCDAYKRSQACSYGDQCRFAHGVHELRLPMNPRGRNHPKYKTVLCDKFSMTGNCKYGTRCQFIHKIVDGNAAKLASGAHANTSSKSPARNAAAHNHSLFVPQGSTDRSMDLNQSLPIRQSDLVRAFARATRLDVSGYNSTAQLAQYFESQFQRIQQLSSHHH

[3] = target: T2, Zinc finger protein mex-5 (Caenorhabditis elegans, UniProt Q9XUB2); test: potency of MEX-5 RNA-binding blockers – biochemical, C. elegans, fluorescence polarization, dose response (AID 1960)
T2 sequence (Q9XUB2 whole entry): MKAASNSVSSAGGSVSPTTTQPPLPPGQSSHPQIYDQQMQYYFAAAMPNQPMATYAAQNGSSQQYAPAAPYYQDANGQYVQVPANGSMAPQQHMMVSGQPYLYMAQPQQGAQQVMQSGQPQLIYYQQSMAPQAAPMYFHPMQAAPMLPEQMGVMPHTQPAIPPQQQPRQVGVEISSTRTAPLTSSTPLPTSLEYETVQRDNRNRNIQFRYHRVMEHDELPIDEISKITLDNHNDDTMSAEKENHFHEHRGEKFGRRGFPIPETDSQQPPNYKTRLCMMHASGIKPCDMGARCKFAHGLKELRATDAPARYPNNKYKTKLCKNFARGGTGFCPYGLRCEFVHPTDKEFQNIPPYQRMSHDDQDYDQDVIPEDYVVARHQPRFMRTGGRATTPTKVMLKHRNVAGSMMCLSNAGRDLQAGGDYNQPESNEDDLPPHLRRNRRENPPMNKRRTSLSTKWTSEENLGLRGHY

Beta-galactosidase = Beta-galactosidase (Escherichia coli, UniProt Q8VNN2); test: PubChem AID 485352; type: functional
Chain of Beta-galactosidase (Q8VNN2 whole entry): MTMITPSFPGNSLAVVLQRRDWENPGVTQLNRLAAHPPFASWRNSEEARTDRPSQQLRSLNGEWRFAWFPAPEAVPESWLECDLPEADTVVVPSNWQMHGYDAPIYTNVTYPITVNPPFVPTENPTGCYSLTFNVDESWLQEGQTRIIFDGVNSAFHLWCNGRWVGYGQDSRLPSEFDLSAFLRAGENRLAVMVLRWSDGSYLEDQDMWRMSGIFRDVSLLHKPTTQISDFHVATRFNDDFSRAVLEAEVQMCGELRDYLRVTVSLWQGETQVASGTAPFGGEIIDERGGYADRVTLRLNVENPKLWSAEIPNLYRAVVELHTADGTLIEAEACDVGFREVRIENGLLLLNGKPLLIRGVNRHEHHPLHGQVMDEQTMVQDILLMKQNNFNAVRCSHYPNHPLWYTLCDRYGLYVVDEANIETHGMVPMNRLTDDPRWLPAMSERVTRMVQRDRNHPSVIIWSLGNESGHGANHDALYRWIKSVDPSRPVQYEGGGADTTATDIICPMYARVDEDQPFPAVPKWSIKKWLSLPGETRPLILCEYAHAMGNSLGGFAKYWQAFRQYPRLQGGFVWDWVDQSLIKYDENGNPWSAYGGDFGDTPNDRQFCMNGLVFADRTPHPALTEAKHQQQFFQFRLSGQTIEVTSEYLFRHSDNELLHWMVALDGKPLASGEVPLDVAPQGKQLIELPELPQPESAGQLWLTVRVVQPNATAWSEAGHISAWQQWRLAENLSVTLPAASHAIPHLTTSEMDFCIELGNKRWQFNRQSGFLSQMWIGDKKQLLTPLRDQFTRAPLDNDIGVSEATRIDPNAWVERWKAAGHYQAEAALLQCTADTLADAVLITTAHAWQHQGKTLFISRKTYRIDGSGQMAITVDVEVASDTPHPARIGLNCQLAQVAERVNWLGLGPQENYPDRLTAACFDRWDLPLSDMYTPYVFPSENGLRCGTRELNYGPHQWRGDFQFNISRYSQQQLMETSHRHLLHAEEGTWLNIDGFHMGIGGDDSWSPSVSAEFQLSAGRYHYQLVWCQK

[4] = target: T3, Type-1 angiotensin II receptor (Homo sapiens, UniProt P30556); test: antagonism of angiotensin II type 1 receptor – cell-based, uHTS hits, selectivity assay for APJ receptor antagonist project, dose response (AID 463214); type: functional;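 note: antagonist potency against angiotensin II stimulated AT1 response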
T3 sequence (P30556 whole entry): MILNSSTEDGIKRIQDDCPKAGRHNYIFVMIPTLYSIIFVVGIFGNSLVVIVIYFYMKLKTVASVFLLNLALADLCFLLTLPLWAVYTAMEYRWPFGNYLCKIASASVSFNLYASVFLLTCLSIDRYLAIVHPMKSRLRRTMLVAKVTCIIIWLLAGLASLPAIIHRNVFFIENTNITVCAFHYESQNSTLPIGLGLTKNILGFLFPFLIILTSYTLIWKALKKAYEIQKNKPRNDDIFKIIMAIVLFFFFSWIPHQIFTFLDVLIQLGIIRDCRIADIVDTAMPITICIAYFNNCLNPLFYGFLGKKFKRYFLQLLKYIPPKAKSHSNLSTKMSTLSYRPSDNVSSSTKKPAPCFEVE

[5] = Trypanosoma cruzi growth suppression in host cells – NIH3T3 host cells, beta-gal luminescence, confirmation (AID 2044); type: functional, cell-based;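 note: intracellular parasites grown in NIH/3T3 mouse fibroblasts as host cells; luminescent beta-galactosidase reporter signal from transgenic T. cruzi replicating inside host cells; inhibitors lower the luminescence signal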
[6] = NIH3T3 cell viability loss – ATP luminescence, mouse fibroblasts, counter-screen, dose response (AID 2010); type: functional, cell-based;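 note: cells exposed to compound for about 90 hours before reading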
[7] = target: Glucose-6-phosphate 1-dehydrogenase (Homo sapiens, UniProt P11413); test: inhibition of Homo sapiens G6PD, dose series – biochemical, fluorescence, selectivity assay for P. falciparum G6PD inhibitor project, dose response (AID 504792); type: functional
Chain of Glucose-6-phosphate 1-dehydrogenase (P11413 whole entry): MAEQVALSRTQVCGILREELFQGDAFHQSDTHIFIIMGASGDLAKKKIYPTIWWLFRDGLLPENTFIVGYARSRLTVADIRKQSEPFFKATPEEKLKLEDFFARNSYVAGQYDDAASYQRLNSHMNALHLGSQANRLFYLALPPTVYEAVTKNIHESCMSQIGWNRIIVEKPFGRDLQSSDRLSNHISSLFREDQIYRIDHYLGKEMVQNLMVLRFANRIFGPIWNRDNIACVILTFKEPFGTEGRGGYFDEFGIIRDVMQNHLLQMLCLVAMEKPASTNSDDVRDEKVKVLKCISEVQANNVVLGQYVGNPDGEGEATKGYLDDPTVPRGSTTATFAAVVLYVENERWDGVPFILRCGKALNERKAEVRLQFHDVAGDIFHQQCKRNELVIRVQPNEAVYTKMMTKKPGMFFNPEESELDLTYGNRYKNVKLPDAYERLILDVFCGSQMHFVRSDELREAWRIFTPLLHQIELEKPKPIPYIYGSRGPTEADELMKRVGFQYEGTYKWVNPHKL

[8] = target: T4, Polyadenylate-binding protein 1 (Homo sapiens, UniProt P11940); test: MLLE binding blockers, Cy5 peptide tracer – biochemical, fluorescence polarization, Cy5-PAM2 peptide, secondary, miRNA deadenylation inhibitor project, dose response (AID 602260); type: functional; details: read-out: IC50_Mean
T4 sequence (P11940 whole entry, the tested form may be a part): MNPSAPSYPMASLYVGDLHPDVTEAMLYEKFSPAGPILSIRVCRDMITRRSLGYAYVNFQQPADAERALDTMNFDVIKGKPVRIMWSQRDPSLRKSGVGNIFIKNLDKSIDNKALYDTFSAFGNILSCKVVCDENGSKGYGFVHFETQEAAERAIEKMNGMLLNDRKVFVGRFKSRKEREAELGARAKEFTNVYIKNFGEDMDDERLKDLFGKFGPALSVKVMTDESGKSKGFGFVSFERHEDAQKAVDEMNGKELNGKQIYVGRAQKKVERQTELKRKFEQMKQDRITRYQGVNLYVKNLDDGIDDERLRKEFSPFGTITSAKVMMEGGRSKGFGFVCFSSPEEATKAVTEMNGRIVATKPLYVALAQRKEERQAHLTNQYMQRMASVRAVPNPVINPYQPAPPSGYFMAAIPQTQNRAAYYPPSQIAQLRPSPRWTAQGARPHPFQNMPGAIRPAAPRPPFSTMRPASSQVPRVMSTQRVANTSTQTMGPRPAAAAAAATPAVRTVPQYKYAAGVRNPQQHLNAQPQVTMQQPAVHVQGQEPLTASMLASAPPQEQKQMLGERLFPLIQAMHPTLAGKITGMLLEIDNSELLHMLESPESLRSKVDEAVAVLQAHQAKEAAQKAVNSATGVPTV

[9] = target: T4, Polyadenylate-binding protein 1; test: MLLE domain peptide-binding blockers, IC50 – biochemical, fluorescence polarization, FITC-PAM2 peptide, dose response (AID 602259); type: functional; details: read-out: IC50_Mean
[10] = target: T5, High affinity choline transporter 1 (Homo sapiens, UniProt Q9GZV3); test: human choline transporter blockers, potency – cell-based, 5-point CRC, membrane potential dye, dose response (AID 504840); type: functional
T5 sequence (Q9GZV3 whole entry): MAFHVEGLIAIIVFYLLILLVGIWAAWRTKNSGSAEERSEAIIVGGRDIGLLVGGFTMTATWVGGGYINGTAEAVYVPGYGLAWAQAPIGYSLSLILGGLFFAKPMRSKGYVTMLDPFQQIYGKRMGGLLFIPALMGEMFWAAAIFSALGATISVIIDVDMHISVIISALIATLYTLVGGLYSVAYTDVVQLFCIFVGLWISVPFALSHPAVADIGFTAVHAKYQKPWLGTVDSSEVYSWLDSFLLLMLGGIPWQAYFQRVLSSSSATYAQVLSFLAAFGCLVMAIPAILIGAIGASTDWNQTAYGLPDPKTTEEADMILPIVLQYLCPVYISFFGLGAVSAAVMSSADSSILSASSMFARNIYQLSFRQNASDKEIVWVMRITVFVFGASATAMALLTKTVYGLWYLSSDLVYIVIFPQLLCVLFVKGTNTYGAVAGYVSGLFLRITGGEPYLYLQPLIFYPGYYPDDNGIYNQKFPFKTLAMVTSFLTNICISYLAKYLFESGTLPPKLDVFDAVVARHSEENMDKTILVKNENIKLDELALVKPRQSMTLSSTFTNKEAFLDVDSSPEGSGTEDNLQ

Caspase-3 = target: T6, Caspase-3 (Homo sapiens, UniProt P42574); type: functional;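 note: Dose-response selectivity test against caspase-3 for candidate inhibitors of sentrin-specific proteases (SENPs)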
T6 sequence (P42574 whole entry): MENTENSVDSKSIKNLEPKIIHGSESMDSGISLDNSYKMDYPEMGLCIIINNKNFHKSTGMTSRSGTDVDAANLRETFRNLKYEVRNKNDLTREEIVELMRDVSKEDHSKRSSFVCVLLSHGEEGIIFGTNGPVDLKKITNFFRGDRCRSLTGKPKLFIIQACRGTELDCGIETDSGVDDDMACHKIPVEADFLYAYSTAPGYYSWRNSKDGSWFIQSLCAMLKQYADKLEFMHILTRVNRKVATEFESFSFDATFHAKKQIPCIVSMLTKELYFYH

[11] = target: T7, Sentrin-specific protease 7 (Homo sapiens, UniProt Q9BQF6); type: functional;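 note: Luminescence-based dose-response confirmation of ultra-high-throughput screening hits, measuring inhibition of SENP7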
T7 sequence (Q9BQF6 whole entry): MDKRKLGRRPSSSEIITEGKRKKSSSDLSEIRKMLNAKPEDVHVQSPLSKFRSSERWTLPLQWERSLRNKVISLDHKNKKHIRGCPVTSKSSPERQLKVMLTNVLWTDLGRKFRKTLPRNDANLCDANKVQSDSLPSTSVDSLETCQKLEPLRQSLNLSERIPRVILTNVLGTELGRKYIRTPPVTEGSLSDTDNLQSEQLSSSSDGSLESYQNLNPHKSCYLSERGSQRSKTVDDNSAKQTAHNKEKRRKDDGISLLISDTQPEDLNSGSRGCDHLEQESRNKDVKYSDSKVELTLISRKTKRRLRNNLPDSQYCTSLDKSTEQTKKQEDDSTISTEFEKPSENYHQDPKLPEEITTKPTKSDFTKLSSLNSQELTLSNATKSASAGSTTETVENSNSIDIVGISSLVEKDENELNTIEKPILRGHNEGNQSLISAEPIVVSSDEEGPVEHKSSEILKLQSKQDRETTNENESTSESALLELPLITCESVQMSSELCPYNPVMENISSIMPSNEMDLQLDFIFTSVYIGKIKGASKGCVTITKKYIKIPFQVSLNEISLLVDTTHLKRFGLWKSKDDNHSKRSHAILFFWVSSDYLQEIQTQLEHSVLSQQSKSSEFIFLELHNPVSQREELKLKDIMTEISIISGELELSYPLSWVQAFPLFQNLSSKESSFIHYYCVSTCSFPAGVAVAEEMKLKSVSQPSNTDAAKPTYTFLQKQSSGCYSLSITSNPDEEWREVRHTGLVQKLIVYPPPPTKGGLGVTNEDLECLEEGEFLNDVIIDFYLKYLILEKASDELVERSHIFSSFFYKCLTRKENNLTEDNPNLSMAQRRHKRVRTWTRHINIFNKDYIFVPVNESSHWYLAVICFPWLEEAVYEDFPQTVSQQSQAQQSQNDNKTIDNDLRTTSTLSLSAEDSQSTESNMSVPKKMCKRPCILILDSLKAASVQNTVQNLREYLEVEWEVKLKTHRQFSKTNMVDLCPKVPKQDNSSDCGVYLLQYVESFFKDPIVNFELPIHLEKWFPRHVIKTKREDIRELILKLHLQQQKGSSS

[12] = target: T8, Sentrin-specific protease 6 (Homo sapiens, UniProt Q9GZR1); type: functional;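 note: Luminescence-based dose-response confirmatory assay of SENP6 inhibition, following up an ultra-high-throughput screen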
T8 sequence (Q9GZR1 whole entry): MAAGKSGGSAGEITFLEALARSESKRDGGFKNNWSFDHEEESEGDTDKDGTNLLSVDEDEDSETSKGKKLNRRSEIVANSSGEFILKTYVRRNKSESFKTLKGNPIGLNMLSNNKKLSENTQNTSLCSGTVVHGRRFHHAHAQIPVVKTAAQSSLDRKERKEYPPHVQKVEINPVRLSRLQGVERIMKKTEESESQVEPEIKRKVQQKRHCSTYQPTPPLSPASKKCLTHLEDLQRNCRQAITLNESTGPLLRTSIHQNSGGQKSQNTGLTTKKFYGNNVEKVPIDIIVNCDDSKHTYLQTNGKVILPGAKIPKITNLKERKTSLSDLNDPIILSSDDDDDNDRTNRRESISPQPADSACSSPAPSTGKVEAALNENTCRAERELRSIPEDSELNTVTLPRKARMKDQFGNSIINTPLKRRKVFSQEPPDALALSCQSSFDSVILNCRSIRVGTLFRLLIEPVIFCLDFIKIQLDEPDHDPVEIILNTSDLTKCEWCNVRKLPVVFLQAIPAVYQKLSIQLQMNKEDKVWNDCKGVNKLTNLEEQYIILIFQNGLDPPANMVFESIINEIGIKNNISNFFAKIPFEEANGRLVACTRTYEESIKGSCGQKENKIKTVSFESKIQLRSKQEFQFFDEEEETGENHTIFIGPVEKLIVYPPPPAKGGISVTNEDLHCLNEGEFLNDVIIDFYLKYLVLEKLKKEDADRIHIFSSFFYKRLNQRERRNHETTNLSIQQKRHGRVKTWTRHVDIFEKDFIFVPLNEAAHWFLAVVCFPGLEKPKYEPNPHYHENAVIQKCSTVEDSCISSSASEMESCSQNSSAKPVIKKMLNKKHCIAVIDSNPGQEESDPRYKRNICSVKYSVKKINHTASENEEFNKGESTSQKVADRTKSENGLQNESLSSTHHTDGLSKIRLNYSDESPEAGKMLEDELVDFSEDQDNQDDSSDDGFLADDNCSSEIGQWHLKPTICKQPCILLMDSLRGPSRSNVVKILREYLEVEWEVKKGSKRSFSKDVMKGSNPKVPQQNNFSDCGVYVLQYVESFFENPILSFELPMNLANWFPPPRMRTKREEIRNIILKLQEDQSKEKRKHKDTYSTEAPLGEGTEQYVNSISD

[13] = target: T9, Sentrin-specific protease 8 (Homo sapiens, UniProt Q96LD8); type: functional;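 note: luminescence read-out of SENP8 inhibition, dose-response confirmation following an ultra-high-throughput screen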
T9 sequence (Q96LD8 whole entry): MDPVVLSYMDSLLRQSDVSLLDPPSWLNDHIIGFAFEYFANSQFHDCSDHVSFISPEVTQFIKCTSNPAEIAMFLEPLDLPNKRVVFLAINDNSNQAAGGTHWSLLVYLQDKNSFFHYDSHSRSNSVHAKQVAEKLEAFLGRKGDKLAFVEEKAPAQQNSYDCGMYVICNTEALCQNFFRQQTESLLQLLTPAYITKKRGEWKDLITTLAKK

Vero = test: viability of Vero cells under compound – cytotoxicity control for flavivirus capping enzyme inhibitors (AID 588742); type: functional; details: Chlorocebus sabaeus
Genome polyprotein = Genome polyprotein (dengue virus type 2, UniProt P29990); test: flavivirus cap methylation enzyme inhibition – biochemical, confirmation dose response, primary screen (AID 588689); type: functional
Chain of Genome polyprotein (P29990 2492-3391 limits assumed): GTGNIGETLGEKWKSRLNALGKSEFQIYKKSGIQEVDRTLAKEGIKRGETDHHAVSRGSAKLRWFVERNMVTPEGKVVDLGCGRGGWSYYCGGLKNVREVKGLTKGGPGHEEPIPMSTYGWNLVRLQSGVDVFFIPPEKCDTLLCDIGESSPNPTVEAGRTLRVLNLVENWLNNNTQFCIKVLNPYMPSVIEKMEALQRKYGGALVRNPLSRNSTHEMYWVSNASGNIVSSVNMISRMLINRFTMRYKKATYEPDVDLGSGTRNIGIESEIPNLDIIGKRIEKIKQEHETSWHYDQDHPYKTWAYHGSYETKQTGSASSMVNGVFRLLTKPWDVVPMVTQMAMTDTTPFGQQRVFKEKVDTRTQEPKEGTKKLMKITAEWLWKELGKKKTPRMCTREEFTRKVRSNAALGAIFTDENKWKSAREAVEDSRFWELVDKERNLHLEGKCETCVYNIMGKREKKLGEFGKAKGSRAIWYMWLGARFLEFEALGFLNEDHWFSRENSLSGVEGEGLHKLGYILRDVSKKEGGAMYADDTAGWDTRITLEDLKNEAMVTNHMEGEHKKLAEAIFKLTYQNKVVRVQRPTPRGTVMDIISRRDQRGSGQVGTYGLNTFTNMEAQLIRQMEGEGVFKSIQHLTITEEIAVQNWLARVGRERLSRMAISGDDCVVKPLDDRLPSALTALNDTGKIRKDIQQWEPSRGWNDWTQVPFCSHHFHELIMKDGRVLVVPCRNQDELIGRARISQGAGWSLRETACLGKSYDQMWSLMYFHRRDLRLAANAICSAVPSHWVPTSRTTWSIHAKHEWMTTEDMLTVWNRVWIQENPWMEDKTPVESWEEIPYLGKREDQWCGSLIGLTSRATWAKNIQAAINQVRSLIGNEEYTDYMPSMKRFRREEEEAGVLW

## CC(=O)Nc1ccc(/C=C/c2nc3ccccc3o2)cc1
[1]
  AC50: 1.2 µM (active)

## CC(NC(=O)COc1ccccc1)C(=O)OCC(=O)c1cc2ccccc2o1 (stereo unspecified)
[2]
  EC50: > 300 µM (not active)
[3]
  EC50: > 300 µM (not active)
Beta-galactosidase
  EC50: > 40 µM (inactive)
[4]
  IC50: 13.8 µM (active)

## CC1=C(n2nnc([N+](=O)[O-])n2)C(c2cccnc2)C(C#N)=C(N)O1 (stereo unspecified)
[5]
  EC50: 0.209 µM (active)
[6]
  EC50: > 60 µM (inconclusive)
[7]
  IC50: 65 µM (inactive)

## O=C(C[n+]1ccc(-c2cc(C(=O)Nc3cccc(C(F)(F)F)c3)c3ccccc3n2)cc1)c1cccc([N+](=O)[O-])c1
Beta-galactosidase
  EC50: > 40 µM (inactive)
[4]
  IC50: 26 µM (not active)

## NC(=S)c1ccc(C(N)=S)o1
[1]
  AC50: 14.3 µM (active)
[8]
  IC50: > 66 µM (inactive)
[9]
  IC50: > 66 µM (inactive)

## C[C@H](NC(=O)OC(C)(C)C)c1nnc(SCC(=O)c2ccc(Cl)cc2)o1
[10]
  IC50: 1.91 µM (active)

## O=[N+]([O-])c1ccc(N/N=N/c2ccccc2)cc1
Caspase-3
  IC50: 45 µM (active)
[11]
  IC50: 9.64 µM (active)
[12]
  IC50: 46.5 µM (active)
[13]
  IC50: 75.3 µM (active)

## CCOC(=O)c1ccc(Nc2cnc3ccccc3n2)cc1
Caspase-3
  IC50: 64.6 µM (active)
[11]
  IC50: 6.72 µM (active)
[12]
  IC50: > 100 µM (inactive)
[13]
  IC50: > 100 µM (inactive)

## COc1ccc(-n2c(=S)[nH]c3cc(C(=O)NCCCN4CCOCC4)ccc3c2=O)cc1
[10]
  IC50: 10.3 µM (active)

## O=c1cc(-c2ccccc2)oc2cc(O)c(O)c(O)c12 [BAICALEIN]
Vero
  CC50: > 40 µM (active)
Genome polyprotein
  IC50: 35.1 µM (active)
[1]
  AC50: 14.5 µM (active)
